Entries after “also recorded” stand apart in the source; their conditions may differ. Structures can show the parent of a compound that is named as a salt.
How the values were obtained:
[1] = tested on: SH-SY5Y cells; assay: Transferrin (Trf) uptake under pharmacological endocytosis inhibitors (control for clathrin-mediated endocytosis); format: cell-based, human; details: for effect of inhibitor on Trf uptake: 10 µM cytochalasin A, 25 µg/ml cytochalasin D, 10 µM IPA-3 or 25 nM wortmannin, Trf 5 µg/ml 5 min
Method: (§1) Flow cytometry was used to quantify cellular uptake. The samples were washed in serum free medium (1x for experiments including only Aβ and 3x for experiments with Trf) prior to incubation with Aβ peptides and/or other reagents in serum free medium supplemented with 30 mM HEPES and 2% B-27. For experiments including Trf B-27 was omitted, as outlined above. Prior to analysis, the cells were washed 1x (for experiments including only Aβ) or 3x (for experiments including Aβ and dextran 10 kDa or Trf) in serum free medium, detached by trypsin-EDTA for 10 min followed by addition of FBS-supplemented cell culture medium to inhibit further proteolytic degradation. All samples were kept on ice until they were analysed on a Guava EasyCyte 8HT (Millipore, Darmstadt, Germany) that automatically retrieves samples from a 96-well plate. In order to exclude effects due to difference in delay time we used mixed order of analysis, loading only a few samples at a time with the remaining samples kept on ice. The cell counting gate was determined using propidium iodide (0.5 µM, not washed away prior to analysis) and calcein-AM (10 nM, 15 min staining) to distinguish live and dead cells, and for each sample 5,000 cells from within the live gate were counted and analysed. HF488, AlexaFluor488, EGFP and calcein-AM were excited by a 488 nm laser and their fluorescence was detected through a 525/30 nm filter. Propidium iodide and mRFP were excited by the 488 nm laser but detected through a 692/46 nm filter. HF647 and AlexaFluor647 were excited with a 635 nm laser and detected through a 661/19 nm filter. Compensation was performed to adjust for bleed through in experiments including mRFP. Mean cellular uptake was estimated as the average fluorescence intensity of all cells gated within the live region and all individual experiments were performed with three technical replicates (n = 3) unless else is stated. The average fluorescence intensity was baseline corrected by subtracting the signal for unstained cells.
Endocytic mechanisms were also perturbed by treatment of cells with pharmacological inhibitors. Stock solutions of cytochalasin A, cytochalasin D, dynasore, wortmannin and IPA-3 were prepared in DMSO and diluted in serum-free cell culture media supplemented with 30 mM HEPES on the day of the experiment. The final DMSO concentration added to the cells was kept <0.1% and matched for the control. Prior to addition of Aβ peptide the cells were always washed in serum-free medium followed by pre-incubation for 30 min with either of the inhibitors diluted in serum-free medium with the addition of 30 mM HEPES. 1 µM Aβ was thereafter added and the cells were incubated for a total of 1 h, in presence of the respective inhibitors. The cells were centrifuged 1000 * g for 5 min at 4 °C, washed 3x with ice-cold serum-free medium, followed by detachment and immediate flow cytometry analysis, as detailed above. […] However, under exposure conditions where at least 75% if the inhibitor-treated cells were found in the live gate (see Supplementary Fig. S5) we observed reductions in Aβ uptake. Only the live cells were included in the analysis. Trf was used as a positive control for clathrin-mediated endocytosis. Due to the rapid uptake and recycling of internalized Trf we adopted an optimized protocol with sufficiently short Trf incubation times. First, to remove the quantities of membrane-bound Trf that originate from the serum component of the complete culture medium the cells were washed 3x in serum-free medium. The cells were then subjected to the inhibitors as described above and thereafter exposed to a 5 min pulse of 5 µg/ml Trf. To remove externally bound fluorescently labelled Trf the cells were thereafter washed (3x/2 min) in ice-cold acidic buffer (0.1 M Glycine-HCl buffer pH 2.5 with 150 mM NaCl)[35] whilst kept on ice. […]

[2] = Stability of CPZ in aqueous solution; format: physicochemical; details: aqueous solution / cell culture medium
[3] = tested on: SH-SY5Y cells; assay: Cell viability by flow cytometry FSC/SSC live/dead gating; format: cell-based; details: for fraction of inhibitor-treated cells in the live gate: 90 min exposure at the concentrations used (10 µM cytochalasin A, 25 µg/ml cytochalasin D, 10 µM IPA-3, 25 nM wortmannin, 5 µg/ml CPZ, 80 µM dynasore), FSC/SSC gating
Method: Flow cytometry was used to quantify cellular uptake. […] For experiments including Trf B-27 was omitted, as outlined above. […] All samples were kept on ice until they were analysed on a Guava EasyCyte 8HT (Millipore, Darmstadt, Germany) that automatically retrieves samples from a 96-well plate. In order to exclude effects due to difference in delay time we used mixed order of analysis, loading only a few samples at a time with the remaining samples kept on ice. The cell counting gate was determined using propidium iodide (0.5 µM, not washed away prior to analysis) and calcein-AM (10 nM, 15 min staining) to distinguish live and dead cells, and for each sample 5,000 cells from within the live gate were counted and analysed. […] Compensation was performed to adjust for bleed through in experiments including mRFP. Mean cellular uptake was estimated as the average fluorescence intensity of all cells gated within the live region and all individual experiments were performed with three technical replicates (n = 3) unless else is stated. The average fluorescence intensity was baseline corrected by subtracting the signal for unstained cells.
(1 picture or pasted object on this page, not shown here)

[4] = tested on: SH-SY5Y cells transfected with dyn2 K44A; assay: Uptake in cells transfected with dominant negative dynamin2 K44A; format: cell-based, human; details: SH-SY5Y 24 h post transfection; HF647-labelled Aβ 1 µM 1 h or AF647-Trf 5 µg/ml 5 min; gated low/medium/high EGFP; N = 2, n = 3–5
Method: as §1, with “In order to exclude effects due to difference in delay time we used mixed order of analysis, loading only a few samples at a time with the remaining samples kept on ice.” left out, “HF647 and AlexaFluor647 were excited with a 635 nm laser and detected through a 661/19 nm filter. Compensation was performed to adjust for bleed through in experiments including mRFP. Mean cellular uptake was estimated as the average fluorescence intensity of all cells gated within the live region and all individual experiments were performed with three technical replicates (n = 3) unless else is stated. The average fluorescence intensity was baseline corrected by subtracting the signal for unstained cells.” left out

[5] = tested on: SH-SY5Y cells transfected with AP180-C; assay: Uptake in cells overexpressing AP180-C; format: cell-based, human; details: SH-SY5Y 24 h post transfection; HF488-labelled Aβ 1 µM 1 h or AF647-Trf 5 µg/ml 5 min; low and high mRFP gates; N = 2, n = 2–4
Method: as §1, with “cells. […]” for “cells.”

## CN(C)CCCN1c2ccccc2Sc2ccc(Cl)cc21 [CPZ, chlorpromazine hydrochloride]
[1]; Homo sapiens, 5 µg/ml CPZ, Trf 5 µg/ml 5 min pulse at end of 1 h Aβ incubation, n = 3
  inhibition at 5 µg/mL: ~30%
[2]
  stability in solution: rapidly degraded in aqueous solutions; also recorded: rapid degradation in solution

## CCN(c1nc(N)c(C(=O)NC(=N)N)nc1Cl)C(C)C [EIPA]
[1]; 25–200 µM
  specificity as macropinocytosis inhibitor: unspecific in SH-SY5Y cells regardless of the concentration used

## Oc1ccc2ccccc2c1SSc1c(O)ccc2ccccc12 [IPA-3, 1,1′-Disulfanediyldinaphthalen-2-ol]
[3]
  fraction of inhibitor-treated cells in the live gate: at least 90%
[1]; n = 3
  effect of inhibitor on Trf uptake: identical to that in the control

## C=C1[C@@H](C)[C@H]2[C@H](Cc3ccccc3)NC(=O)[C@]23OC(=O)/C=C/C(=O)CCC[C@@H](C)C/C=C/[C@H]3[C@@H]1O [cytochalasin A]
[3]
  fraction of inhibitor-treated cells in the live gate: > 85%
[1]; n = 3
  effect of inhibitor on Trf uptake: reduced the uptake of Trf

## C=C1[C@@H](C)[C@H]2[C@H](Cc3ccccc3)NC(=O)[C@]23[C@H](OC(C)=O)/C=C/[C@@](C)(O)C(=O)[C@@H](C)C/C=C/[C@H]3[C@@H]1O [cytochalasin D]
[3]
  fraction of inhibitor-treated cells in the live gate: > 85%
[1]; n = 3
  effect of inhibitor on Trf uptake: reduced the uptake of Trf

## O=C(N/N=C/c1ccc(O)c(O)c1)c1cc2ccccc2cc1O [dynasore]
[1]; Homo sapiens, 5 min, 80 µM dynasore, 5 µg/ml AF647-Trf 5 min pulse, range over 4 independent experiments
  inhibition at 80 µM: 30 to 65%

## COC[C@H]1OC(=O)c2coc3c2[C@@]1(C)C1=C(C3=O)[C@@H]2CCC(=O)[C@@]2(C)C[C@H]1OC(C)=O [wortmannin]
[3]
  fraction of inhibitor-treated cells in the live gate: at least 90%
[1]; n = 3
  effect of inhibitor on Trf uptake: identical to that in the control

## Transferrin [Trf]
[4]
  uptake in dyn2 K44A transfected cells relative to non-transfected cells: inhibited in proportion to the degree of dyn2 K44A expression
[5]
  uptake in AP180-C transfected cells compared to non-transfected cells: systematically decreased with the degree of AP180-C overexpression

## methyl-β-cyclodextrin
[3]
  cytotoxicity during cholesterol depletion: high levels of cytotoxicity
